Source: ChEMBL document CHEMBL1137113, “A convenient and biogenetic type synthesis of few naturally occurring chromeno dihydrochalcones and their in vitro antileishmanial activity” (2004)
Calls of active or inactive are those of the source. No cut-off for these calls is given here.

Legend:
Leishmania donovani [1] = experiment: In-vitro antileishmanial activity was tested against extracellular promastigotes of Leishmania donovani at dose of 50 ug/mL; IA is inactive; type: functional, organism-based
Leishmania donovani [2] = experiment: In-vitro antileishmanial activity was tested against intracellular amastigotes of Leishmania donovani at dose 50 ug/mL; type: functional
Leishmania donovani [3] = experiment: In-vitro antileishmanial activity was tested against extracellular promastigotes of Leishmania donovani at dose of 50 ug/mL; type: functional
Leishmania donovani [4] = experiment: In-vitro antileishmanial activity was tested against extracellular promastigotes of Leishmania donovani at dose of 5 ug/mL; type: functional
Leishmania donovani [5] = experiment: In-vitro antileishmanial activity was tested against intracellular amastigotes of Leishmania donovani at dose 5 ug/mL; type: functional
Leishmania donovani [6] = experiment: In-vitro antileishmanial activity was tested against intracellular amastigotes of Leishmania donovani at dose 50 ug/mL; IA is inactive; type: functional, organism-based
Leishmania donovani [7] = experiment: In-vitro antileishmanial activity was tested against intracellular amastigotes of Leishmania donovani at dose 50 ug/mL; Toxic; type: functional, organism-based

Molecule | inhibition at 50 µg/mL (Leishmania donovani [3]) [%] | inhibition at 50 µg/mL (Leishmania donovani [2]) [%] | further results
Stibanate |  |  | inhibition (Leishmania donovani [1]): inactive; inhibition (Leishmania donovani [2]): 85%
CC1(C)C=Cc2c(ccc(C(=O)/C=C/c3ccc(O)cc3)c2O)O1 | 84 | 74 | 
N=C(N)c1ccc(OCCCCCOc2ccc(C(=N)N)cc2)cc1 [PENTAMIDINE] |  |  | inhibition at 5 µg/mL (Leishmania donovani [4]): 97%; inhibition at 5 µg/mL (Leishmania donovani [5]): 50%
COc1ccc(CCC(=O)c2ccc3c(c2O)C=CC(C)(C)O3)cc1OC |  | 22 | inhibition (Leishmania donovani [1]): inactive
CC1(C)C=Cc2c(ccc(C(=O)CCc3ccc(O)c(O)c3)c2O)O1 | 30 |  | inhibition (Leishmania donovani [6]): inactive
COc1ccc(/C=C/C(=O)c2ccc(O)cc2O)cc1 | 60 | 15 | 
COc1ccc(CCC(=O)c2ccc(O)cc2O)cc1OC | 79 |  | inhibition (Leishmania donovani [7]): Toxic
COc1ccc(/C=C/C(=O)c2ccc3c(c2O)C=CC(C)(C)O3)cc1 | 85 | 53 | 
COc1ccc(CCC(=O)c2ccc3c(c2O)C=CC(C)(C)O3)cc1 | 78 | 47 | 
CC1(C)C=Cc2c(ccc(C(=O)CCc3ccc(O)cc3)c2O)O1 | 89 |  | inhibition (Leishmania donovani [7]): Toxic
